Values of other authors as cited in patent US20240398831A1, “COMPOSITIONS COMPRISING SMALL MOLECULE REGULATORS OF TUMOR IMMUNITY AND METHODS OF USING SAME” (Duke University, priority 2021, published 2024).

Test system: melanoma
Conditions: human, in vivo; cited from earlier work

Q: For `CC/C(=C(\c1ccccc1)c1ccc(OCCN(C)C)cc1)c1ccccc1` [tamoxifen], which “results of studies in melanoma patients” value is on record?
A: The value was “equivocal”.
